Numbered stars: 1 amine (or outer) side, 2 acyl side, 3 side chain; on linkers, the order of the positions; unused ones are H or OH. Square brackets hold non-standard residues; d marks the D form. Side chains are listed from the residue outwards. Peptide text beside a SMILES is read from it. * marks the point of attachment. C20 diacid = O=C(O)CCCCCCCCCCCCCCCCCCC(=O)*; γGlu = O=C(O)[C@H](CCC(=O)[*:2])N[*:1]; αMeL = CC(C)C[C@](C)(N)C(=O)O; Orn = NCCC[C@H](N)C(=O)O; AEEA = NCCOCCOCC(=O)O; Aib = CC(C)(N)C(=O)O
Tests used:
[1] = molecular target: T1, human Gcg receptor (Homo sapiens, UniProt P47871); assay: [125I]-Glucagon binding (SPA), human Gcg receptor; details: read-out: hGLcgR Ki, nM (SEM, n)
T1 construct: expressed in transfected cells; crude membranes
How it was run: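 Scintillation counts are taken after membranes and WGA beads incubate and settle for 12 hours at room temperature. Buffer is 25 mM HEPES, pH 7.4, with CaCl2, MgCl2, bacitracin and Tween-20. Ki values, from four-parameter IC50 fits, are geometric means over independent days.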

[2] = molecular target: T2, human GLP-1R (Homo sapiens, UniProt P43220); assay: GLP-1R HEK293 cell membrane [35S]GTPγS binding assay; assay type: biochemical; design: expressed in transfected cells; host or cells: HEK293 cells expressing human GLP-1R; membranes; details: HEK293 cell membranes expressing human GLP-1R, [35S]GTPγS binding; read-out: hGLP1R GTPgS Rel EC50 nM (SEM, n)
How it was run: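 Membranes from HEK293 cells expressing the receptor incubated with peptide and […] [35S]GTPγS in HEPES pH 7.4 buffer with NaCl, MgCl2, saponin and BSA, 30 min at room temperature. Gαs-bound label captured by anti-Gαs antibody/SPA beads and counted; EC50 from four-parameter logistic fit.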

[3] = molecular target: human GLP-1 receptor (GLP-1R) (Homo sapiens, UniProt P43220); assay: cAMP pharmacological functional assay in presence of casein, hGLP-1R; assay type: cell-based; details: HEK293 cells expressing hGLP-1R, 0.1% Casein, geometric mean; read-out: hGLP1R cAMP Rel EC50 nM (SEM, n)
[4] = molecular target: T2, human GLP-1R; assay: [125I]-GLP-1 binding (SPA), human GLP-1 receptor; design: expressed in transfected cells; crude membranes; details: read-out: hGLP1R Ki, (nM) (SEM, n)
How it was run: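 Crude-membrane binding assay; one membrane prep included 1 mM MgCl2 and 25 units/ml DNAse I during lysis. Assay buffer at pH 7.4 contains 0.1% (w/v) bacitracin and 0.003% (w/v) TWEEN-20. Ki is reported as geometric mean.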

[5] = molecular target: T3, human GIP receptor (Homo sapiens, UniProt P48546); assay: [125I]-GIP binding (SPA), human GIP receptor; details: read-out: hGIPR Ki, nM (SEM, n)
T3 construct: expressed in transfected cells; crude membranes
T3 sequence (P48546 22-466): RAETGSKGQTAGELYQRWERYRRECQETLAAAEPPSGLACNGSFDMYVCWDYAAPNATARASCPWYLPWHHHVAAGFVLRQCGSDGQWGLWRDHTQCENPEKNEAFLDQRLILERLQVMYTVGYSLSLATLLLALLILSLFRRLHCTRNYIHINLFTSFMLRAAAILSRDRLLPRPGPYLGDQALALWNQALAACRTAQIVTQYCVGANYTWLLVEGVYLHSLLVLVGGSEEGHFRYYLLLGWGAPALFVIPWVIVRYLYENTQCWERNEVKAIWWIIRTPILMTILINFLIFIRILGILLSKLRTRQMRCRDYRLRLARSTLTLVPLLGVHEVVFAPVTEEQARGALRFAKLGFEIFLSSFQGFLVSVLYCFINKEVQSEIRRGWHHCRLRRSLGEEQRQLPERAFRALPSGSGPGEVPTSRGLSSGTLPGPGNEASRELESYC

[6] = molecular target: T4, gastric inhibitory peptide receptor (GIPR) (Homo sapiens, UniProt P48546); assay: cAMP pharmacological functional assay in presence of casein, hGIPR; assay type: cell-based; details: HEK293 cells expressing hGIPR, 0.1% Casein, geometric mean; read-out: hGIPR cAMP Rel EC50 nM (SEM, n)
T4 sequence (P48546 22-466): T3 sequence (P48546 22-466)

[7] = molecular target: T2, human GLP-1R; assay: GLP-1R CHO cell β-arrestin recruitment assay; assay type: cell-based; design: host or cells: CHO-K1 PathHunter cells, assay-ready frozen; details: for EC50: CHO-K1 cells; for hGLP1R B-Arrestin2 % Top: normalized to GLP-1 maximum control
How it was run: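 PathHunter CHO-K1 cells with ProLink-tagged human GLP-1R and enzyme-acceptor-tagged β-arrestin-2 treated with serially diluted peptides in assay buffer containing 0.1% hydrolyzed casein, 90 min at 37 °C.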

[8] = PathHunter β-arrestin-2 recruitment, 0.1% casein, read-out: hGLP1R B-Arrestin2 Rel EC50 uM (SEM, n)

T2 sequence (P43220 24-463): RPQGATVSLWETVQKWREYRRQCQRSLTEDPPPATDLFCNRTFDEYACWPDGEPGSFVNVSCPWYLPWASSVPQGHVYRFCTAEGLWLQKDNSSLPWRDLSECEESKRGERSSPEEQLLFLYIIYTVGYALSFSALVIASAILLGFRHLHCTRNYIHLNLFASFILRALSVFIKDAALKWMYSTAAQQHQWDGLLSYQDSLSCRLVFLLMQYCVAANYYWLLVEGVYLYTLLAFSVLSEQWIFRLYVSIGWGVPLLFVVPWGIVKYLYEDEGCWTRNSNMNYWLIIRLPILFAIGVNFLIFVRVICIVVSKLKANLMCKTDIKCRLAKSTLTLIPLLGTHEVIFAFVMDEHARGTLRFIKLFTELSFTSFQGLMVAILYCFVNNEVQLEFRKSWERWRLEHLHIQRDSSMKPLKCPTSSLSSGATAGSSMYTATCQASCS
Sequence of human GLP-1 receptor (GLP-1R) (P43220 24-463): as above
T1 sequence (P47871 26-477): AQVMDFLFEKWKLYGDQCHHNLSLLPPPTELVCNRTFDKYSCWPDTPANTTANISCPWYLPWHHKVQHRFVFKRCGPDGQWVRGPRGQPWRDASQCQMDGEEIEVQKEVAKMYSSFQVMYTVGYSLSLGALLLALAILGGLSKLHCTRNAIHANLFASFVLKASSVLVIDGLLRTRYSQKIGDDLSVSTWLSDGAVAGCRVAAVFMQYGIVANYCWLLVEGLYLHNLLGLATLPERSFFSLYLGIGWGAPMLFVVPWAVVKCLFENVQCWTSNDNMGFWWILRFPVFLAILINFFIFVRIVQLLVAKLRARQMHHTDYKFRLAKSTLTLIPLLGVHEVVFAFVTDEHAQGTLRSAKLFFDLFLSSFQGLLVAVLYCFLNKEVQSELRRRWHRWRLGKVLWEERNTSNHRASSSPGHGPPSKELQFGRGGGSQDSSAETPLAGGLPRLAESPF

Structure (SMILES) | Ki [1] | EC50 [2] | EC50 [3] | Ki [4] | Ki [5] | EC50 [6] | EC50 ([7]; 0.1% w/v hydrolyzed Casein, read-out: hGLP1R B-Arrestin2 Rel EC50) | EC50 [7, 8] | hGLP1R B-Arrestin2 % Top [7]
CC[C@H](C)[C@H](NC(=O)[C@H](CC(C)C)NC(=O)[C@H](Cc1ccc(O)cc1)NC(=O)[C@@H](CCC(=O)O)NC(=O)[C@@H](NC(=O)[C@H](Cc1ccccc1)NC(=O)[C@H](C)NC(=O)C(C)(C)NC(=O)[C@H](CCC(N)=O)NC(=O)[C@H](C)NC(=O)[C@H](CCCCNC(=O)COCCOCCNC(=O)COCCOCCNC(=O)CC[C@H](NC(=O)CCCCCCCCCCCCCCCCCCC(=O)O)C(=O)O)NC(=O)[C@H](CCCN)NC(=O)[C@H](CC(=O)O)NC(=O)[C@H](CC(C)C)NC(=O)[C@](C)(CC(C)C)NC(=O)[C@@H](NC(=O)[C@H](CO)NC(=O)[C@H](Cc1ccc(O)cc1)NC(=O)[C@H](CC(=O)O)NC(=O)[C@H](CO)NC(=O)[C@@H](NC(=O)[C@H](Cc1ccccc1)NC(=O)[C@@H](NC(=O)CNC(=O)[C@H](CCC(=O)O)NC(=O)C(C)(C)NC(=O)[C@H](N)Cc1ccc(O)cc1)[C@@H](C)O)[C@@H](C)O)[C@@H](C)CC)[C@@H](C)CC)C(=O)N[C@@H](C)C(=O)NCC(=O)NCC(=O)N1CCC[C@H]1C(=O)N[C@@H](CO)C(=O)N[C@@H](CO)C(=O)NCC(=O)N[C@@H](C)C(=O)N1CCC[C@H]1C(=O)N1CCC[C@H]1C(=O)N1CCC[C@H]1C(=O)N[C@@H](CO)C(N)=O [Example 291] (H-[dY][Aib]EGTFTSDYSI[αMeL]LD[Orn]K([AEEA-AEEA-γGlu-C20 diacid])AQ[Aib]AFI[dE]YLIAGGPSSGAPPPS-NH2) | > 872 nM | 0.466 nM | 0.15 nM | 3.16 nM | 0.129 nM | 0.118 nM | > 10 µM | > 10 µM | –
CC[C@H](C)[C@H](NC(=O)[C@H](CC(C)C)NC(=O)[C@H](Cc1ccc(O)cc1)NC(=O)[C@H](CCC(=O)O)NC(=O)[C@@H](NC(=O)[C@H](Cc1ccccc1)NC(=O)[C@H](C)NC(=O)C(C)(C)NC(=O)[C@H](CCC(N)=O)NC(=O)[C@H](C)NC(=O)[C@H](CCCCNC(=O)COCCOCCNC(=O)COCCOCCNC(=O)CC[C@H](NC(=O)CCCCCCCCCCCCCCCCCCC(=O)O)C(=O)O)NC(=O)[C@H](CCCCN)NC(=O)[C@H](CC(=O)O)NC(=O)[C@H](CC(C)C)NC(=O)[C@](C)(CC(C)C)NC(=O)[C@@H](NC(=O)[C@H](CO)NC(=O)[C@H](Cc1ccc(O)cc1)NC(=O)[C@H](CC(=O)O)NC(=O)[C@H](CO)NC(=O)[C@@H](NC(=O)[C@H](Cc1ccccc1)NC(=O)[C@@H](NC(=O)CNC(=O)[C@H](CCC(=O)O)NC(=O)C(C)(C)NC(=O)[C@@H](N)Cc1ccccc1)[C@@H](C)O)[C@@H](C)O)[C@@H](C)CC)[C@@H](C)CC)C(=O)N[C@@H](CCC(=O)O)C(=O)NCC(=O)NCC(=O)N1CCC[C@H]1C(=O)N[C@@H](CO)C(=O)N[C@@H](CO)C(=O)NCC(=O)N[C@@H](C)C(=O)N1CCC[C@H]1C(=O)N1CCC[C@H]1C(=O)N1CCC[C@H]1C(=O)N[C@@H](CO)C(N)=O [Example 327] (H-F[Aib]EGTFTSDYSI[αMeL]LDKK([AEEA-AEEA-γGlu-C20 diacid])AQ[Aib]AFIEYLIEGGPSSGAPPPS-NH2; N-terminus assumed) | 114 nM | 0.287 nM | 0.27 nM | 2.1 nM | 0.0667 nM | 0.0548 nM | – | 0.00379 µM | 41.6%
CC[C@H](C)[C@H](NC(=O)[C@H](CC(C)C)NC(=O)[C@H](Cc1ccc(O)cc1)NC(=O)[C@H](CCC(=O)O)NC(=O)[C@@H](NC(=O)[C@H](Cc1ccccc1)NC(=O)[C@H](CCC(=O)O)NC(=O)C(C)(C)NC(=O)[C@H](CCC(N)=O)NC(=O)[C@H](C)NC(=O)[C@H](CCCCNC(=O)COCCOCCNC(=O)COCCOCCNC(=O)CC[C@H](NC(=O)CCCCCCCCCCCCCCCCCCC(=O)O)C(=O)O)NC(=O)[C@H](CCCCN)NC(=O)[C@H](CC(=O)O)NC(=O)[C@H](CC(C)C)NC(=O)[C@](C)(CC(C)C)NC(=O)[C@@H](NC(=O)[C@H](CO)NC(=O)[C@H](Cc1ccc(O)cc1)NC(=O)[C@H](CC(=O)O)NC(=O)[C@H](CO)NC(=O)[C@@H](NC(=O)[C@H](Cc1ccccc1)NC(=O)[C@@H](NC(=O)CNC(=O)[C@H](CCC(=O)O)NC(=O)C(C)(C)NC(=O)[C@@H](N)Cc1ccc(O)cc1)[C@@H](C)O)[C@@H](C)O)[C@@H](C)CC)[C@@H](C)CC)C(=O)N[C@@H](CCC(=O)O)C(=O)NCC(=O)NCC(=O)N1CCC[C@H]1C(=O)N[C@@H](CO)C(=O)N[C@@H](CO)C(=O)NCC(=O)N[C@@H](C)C(=O)N1CCC[C@H]1C(=O)N1CCC[C@H]1C(=O)N1CCC[C@H]1C(=O)N[C@@H](CO)C(N)=O [Example 333] (H-Y[Aib]EGTFTSDYSI[αMeL]LDKK([AEEA-AEEA-γGlu-C20 diacid])AQ[Aib]EFIEYLIEGGPSSGAPPPS-NH2) | 578 nM | 0.442 nM | 0.131 nM | 4.25 nM | 0.0634 nM | 0.0492 nM | – | 0.0548 µM | 58.2%
CC[C@H](C)[C@H](NC(=O)[C@H](CC(C)C)NC(=O)[C@H](Cc1ccc(O)cc1)NC(=O)[C@H](CCC(=O)O)NC(=O)[C@@H](NC(=O)[C@H](Cc1ccccc1)NC(=O)[C@H](CCC(=O)O)NC(=O)C(C)(C)NC(=O)[C@H](CCC(N)=O)NC(=O)[C@H](C)NC(=O)[C@H](CCCCNC(=O)COCCOCCNC(=O)CC[C@H](NC(=O)CCCCCCCCCCCCCCCCCCC(=O)O)C(=O)O)NC(=O)[C@H](CCCCN)NC(=O)[C@H](CC(=O)O)NC(=O)[C@H](CC(C)C)NC(=O)[C@](C)(CC(C)C)NC(=O)[C@@H](NC(=O)[C@H](CO)NC(=O)[C@H](Cc1ccc(O)cc1)NC(=O)[C@H](CC(=O)O)NC(=O)[C@H](CO)NC(=O)[C@@H](NC(=O)[C@H](Cc1ccccc1)NC(=O)[C@@H](NC(=O)CNC(=O)[C@H](CCC(=O)O)NC(=O)C(C)(C)NC(=O)[C@@H](N)Cc1ccc(O)cc1)[C@@H](C)O)[C@@H](C)O)[C@@H](C)CC)[C@@H](C)CC)C(=O)N[C@@H](C)C(=O)NCC(=O)NCC(=O)N1CCC[C@H]1C(=O)N[C@@H](CO)C(=O)N[C@@H](CO)C(=O)NCC(=O)N[C@@H](C)C(=O)N1CCC[C@H]1C(=O)N1CCC[C@H]1C(=O)N1CCC[C@H]1C(=O)N[C@@H](CO)C(N)=O [Example 339] (H-Y[Aib]EGTFTSDYSI[αMeL]LDKK([AEEA-γGlu-C20 diacid])AQ[Aib]EFIEYLIAGGPSSGAPPPS-NH2) | 873 nM | 0.326 nM | 0.0986 nM | 2.69 nM | 0.0388 nM | 0.0219 nM | – | 0.0107 µM | 44.0%

Source: patent publication US12252524B2, “GIP/GLP1 co-agonist compounds” (Eli Lilly and Company, priority 2018, dated 2025)
